One series concerns the target E. coli gyrase (Escherichia coli, UniProt P0AES4+P0AES6). Description: biochemical. The settings on record: supercoiling of relaxed pBR322, 30 minutes at 37° C.
Another series concerns S. pyogenes C203. Description: Test A antibacterial assay, standard microtitration (MIC). It counts as cell-based. The settings on record: Streptococcus pyogenes, Gram positive, read-out: Minimum Inhibitory Concentrations, S. pyogenes C203. As to the method: (§1) The compounds of the present invention were tested against an assortment of Gram-negative and Gram-positive organisms using standard microtitration techniques (Cohen, et al., Antimicrob. Agents Chemother., 1985;28:766; Heifetz, et al., Antimicrob. Agents Chemother., 1974;6:124). […]

A further series concerns E. coli MC 4100. The description is as above. As to conditions: Escherichia coli, MC4100; Gram negative; read-out: Minimum Inhibitory Concentrations, E. coli MC 4100. It counts as cell-based. The method, then: as §1
For a further series, the system named is E. faecalis RB1. The series is described as above. It counts as cell-based. The settings on record: Enterococcus faecalis, Gram positive, read-out: Minimum Inhibitory Concentrations, E. faecalis RB1. As to the method:
as §1

The test system of a further series is E. coli B90. The description is as above. It counts as cell-based. As to conditions: Escherichia coli, Gram negative, read-out: Minimum Inhibitory Concentrations, E. coli B90. The method, then: as §1
Another series relates to E. coli Tol C. Described as above. It counts as cell-based. As to conditions: Escherichia coli, read-out: Minimum Inhibitory Concentrations, E. coli Tol C. As to the method: as §1
In another series the test system is S. pyogenes. Description: In vivo median protective dose in mice given lethal systemic infections. As to conditions: lethal systemic infection.
The subject of another series is N. gonorrhoeae 2709. The series can be described thus: Test C cross resistance antibacterial assay (MIC). Format: cell-based. As to conditions: Neisseria gonorrhoeae, 2709, read-out: Minimum Inhibitory Concentrations, N. g. 2709.
The subject of a further series is N. gonorrhoeae 2637. The series can be described thus: Test C cross resistance antibacterial assay (MIC). It counts as cell-based, Neisseria gonorrhoeae.
The subject of another series is S. aureus 29213. Description: Test A antibacterial assay, standard microtitration (MIC). Format: cell-based. The settings on record: Staphylococcus aureus, Gram positive, read-out: Minimum Inhibitory Concentrations, S. aureus 29213. As to the method: as §1
Another series relates to S. aureus 2552. Description: Test C cross resistance antibacterial assay (MIC). Format: cell-based. As to the method: (§2) The compounds of the present invention were tested against an assortment of ciprofloxacin resistant E. coli and S. aureus organisms described below using standard microtitration techniques (Cohen, et al., Antimicrob. Agents Chemother., 1985;28:766; Heifetz, et al., Antimicrob. Agents Chemother., 1974;6:124).

Another series deals with S. aureus UC-76. Description: Test C cross resistance antibacterial assay (MIC). It counts as cell-based. As to conditions: Staphylococcus aureus. The method, then: as §2
Where [1] appears, read: Neisseria gonorrhoeae, 2637, derivative of MS11, parent strain, read-out: Minimum Inhibitory Concentrations, N. g. 2637.
[2] abbreviates: Staphylococcus aureus, 2552, upregulated norA pump, read-out: Minimum Inhibitory Concentrations, S. aureus 2552.
Setting [3] is: UC76, wild type sensitive strain, read-out: Minimum Inhibitory Concentrations, S. aureus UC-76.

12 molecules from patent publication US6864259B2, “Antibacterial agents” (Warner-Lambert Company, priority 2001, dated 2005) can be followed below.

≈ marks a conversion by molar mass, not a printed value. Structures can show the parent of a compound that is named as a salt. Where two headings read alike, the source gives them in different places.

The melting point is the temperature of the solid-liquid transition. As a reminder, the IC50 is the concentration at which inhibition is half-maximal. A high value points to weaker potency.

E. coli gyrase, sequence (P0AES4 whole entry, one chain of several): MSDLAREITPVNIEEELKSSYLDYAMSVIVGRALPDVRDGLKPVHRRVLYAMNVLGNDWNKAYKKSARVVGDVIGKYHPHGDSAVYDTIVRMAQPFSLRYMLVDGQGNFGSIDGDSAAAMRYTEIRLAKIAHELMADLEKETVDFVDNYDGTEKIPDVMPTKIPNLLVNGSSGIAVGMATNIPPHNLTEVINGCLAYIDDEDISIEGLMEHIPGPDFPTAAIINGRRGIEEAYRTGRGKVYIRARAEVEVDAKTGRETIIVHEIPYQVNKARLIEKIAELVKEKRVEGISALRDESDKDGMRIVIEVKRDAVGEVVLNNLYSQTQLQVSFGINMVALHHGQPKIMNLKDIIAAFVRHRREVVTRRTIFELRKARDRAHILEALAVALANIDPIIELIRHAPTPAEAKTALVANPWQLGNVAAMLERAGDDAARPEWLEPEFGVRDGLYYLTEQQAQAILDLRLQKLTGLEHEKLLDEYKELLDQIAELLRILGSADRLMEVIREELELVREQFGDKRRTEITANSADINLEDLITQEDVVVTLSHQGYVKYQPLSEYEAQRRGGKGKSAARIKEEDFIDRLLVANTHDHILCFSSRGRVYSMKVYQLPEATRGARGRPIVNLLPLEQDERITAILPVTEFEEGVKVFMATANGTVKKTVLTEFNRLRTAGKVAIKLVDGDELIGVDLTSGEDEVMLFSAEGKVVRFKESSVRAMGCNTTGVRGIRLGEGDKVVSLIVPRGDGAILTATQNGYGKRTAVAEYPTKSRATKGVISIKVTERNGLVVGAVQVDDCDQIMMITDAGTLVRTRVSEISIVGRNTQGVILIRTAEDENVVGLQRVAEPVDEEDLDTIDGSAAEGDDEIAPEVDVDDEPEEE

In turn, `Cc1c(N2CC[C@@H]([C@@H](C)N)C2)c(F)cn2c(=O)n(N)c(=O)c(C3CC3)c12.Cl` gave a melting point of 218 to 221 °C.
Still for that read-out and setting: the figure for `Cc1c(N2CCC(N)C2)c(F)cn2c(=O)n(N)c(=O)c(C3CC3)c12.Cl` (stereo not shown) is 246 to 248 °C.
Turning to `Cc1c(N2CC(C)C(C(C)N)C2)c(F)cn2c(=O)n(N)c(=O)c(C3CC3)c12.Cl` (stereo not shown), the melting point lay within 238 to 240 °C.
For `Cc1c(N2CC(C(C)N)C(C)(C)C2)c(F)cn2c(=O)n(N)c(=O)c(C3CC3)c12` (stereo not shown) (as salt: hydrochloride) [Compound 5c, 2-Amino-6-[4-(1-amino-ethyl)-3,3-dimethylpyrrolidin-1-yl]-4-cyclopropropyl-7-fluoro-5-methyl-pyrido[1,2-c]pyrimidine-1,3-dione, hydrochloride], the melting point lay within 238 to 240 °C.
With `Cc1c(N2C[C@H](CN)[C@H](F)C2)c(F)cn2c(=O)n(N)c(=O)c(C3CC3)c12` (racemic) [Compound 4j, 2-Amino-6-((3S,4S) and (3R,4R)-3-aminomethyl-4-fluoropyrrolidin-1-yl)-4-cyclopropyl-7-fluoro-5-methylpyrido[1,2-c]pyrimidine-1,3-dione], the IC50 against E. coli gyrase came to 1500 nM. The MIC in the series with S. pyogenes C203 worked out at 0.03 µg/mL (≈ 0.0821 µM); in the series on E. coli MC 4100, 2 µg/mL (≈ 5.47 µM); in the series with E. faecalis RB1, 0.5 µg/mL (≈ 1.37 µM); in the series with E. coli B90 it was 0.25 µg/mL (≈ 0.684 µM); with E. coli Tol C, 0.13 µg/mL (≈ 0.356 µM).
Regarding `O=C(O)c1cn(C2CC2)c2cc(N3CCNCC3)c(F)cc2c1=O` [Ciprofloxacin, ciprofloxacin, reference compound], the “In Vivo Median Protective Dose (PD50) in Mice (PO)” value (“In Vivo Median Protective Dose” for short) with S. pyogenes is recorded as >100 mg/kg. Moreover, the MIC in the series on N. gonorrhoeae 2709 was 0.06 µg/mL (≈ 0.181 µM); in the series with N. gonorrhoeae 2637 (Neisseria gonorrhoeae, 2637, read-out: Minimum Inhibitory Concentrations, N. g. 2637) it was 0.002 µg/mL (≈ 0.00604 µM); in the series with S. pyogenes C203, 0.5 µg/mL (≈ 1.51 µM); in the series on E. coli MC 4100, < 0.02 µg/mL; in the series with E. faecalis RB1, 0.5 µg/mL (≈ 1.51 µM); with E. coli B90 it was < 0.01 µg/mL. In addition, the MIC was 0.5 µg/mL (≈ 1.51 µM) in the series on S. aureus 29213; < 0.01 µg/mL in the series on E. coli Tol C; 2 µg/mL (≈ 6.04 µM) with S. aureus 2552 (Staphylococcus aureus, 2552, read-out: Minimum Inhibitory Concentrations, S. aureus 2552); 0.13 µg/mL (≈ 0.392 µM) in the series on S. aureus UC-76 (UC76, read-out: Minimum Inhibitory Concentrations, S. aureus UC-76).
Take `CN[C@@H](C)[C@@H]1CCN(c2c(F)cn3c(=O)n(N)c(=O)c(C4CC4)c3c2C)C1` [Compound 4f, 2-Amino-4-cyclopropyl-7-fluoro-5-methyl-6-[3-(1-methylaminoethyl)pyrrolidin-1-yl]pyrido[1,2-c]pyrimidine-1,3-dione]: the concentration for half-maximal inhibition (IC50) on E. coli gyrase turned out to be 1000 nM. The “In Vivo Median Protective Dose” value in the series with S. pyogenes is 1.2 mg/kg. The MIC is 0.5 µg/mL (≈ 1.33 µM) with N. gonorrhoeae 2709; 0.25 µg/mL (≈ 0.666 µM) in the series on N. gonorrhoeae 2637 (setting [1]); 0.015 µg/mL (≈ 0.04 µM) in the series with S. pyogenes C203; 2 µg/mL (≈ 5.33 µM) in the series on E. coli MC 4100; 0.06 µg/mL (≈ 0.16 µM) in the series on E. faecalis RB1; 0.13 µg/mL (≈ 0.346 µM) with E. coli B90. For the same molecule, the MIC was determined as 0.25 µg/mL (≈ 0.666 µM) in the series on S. aureus 29213, 0.03 µg/mL (≈ 0.0799 µM) in the series with E. coli Tol C, 0.5 µg/mL (≈ 1.33 µM) in the series on S. aureus 2552 (setting [2]) and 0.06 µg/mL (≈ 0.16 µM) with S. aureus UC-76 (setting [3]).
Molecule `Cc1c(N2CCCC2)c(F)cn2c(=O)n(N)c(=O)c(C3CC3)c12` [Compound 4g, 2-Amino-4-cyclopropyl-7-fluoro-5-methyl-6-pyrrolidin-1-yl-pyrido[1,2-c]pyrimidine-1,3-dione] had a melting point of 202 to 204 °C. On E. coli gyrase, this molecule showed an IC50 of 1700 nM. For the same molecule, the MIC in the series with S. pyogenes C203 came to 1 µg/mL (≈ 3.14 µM). Also, the MIC in the series with E. coli MC 4100 worked out at 16 µg/mL (≈ 50.3 µM). In addition, the MIC with E. faecalis RB1 worked out at 2 µg/mL (≈ 6.28 µM). Besides, the MIC in the series on E. coli B90 is 0.25 µg/mL (≈ 0.785 µM). In addition, the MIC with S. aureus 29213 stood at 1 µg/mL (≈ 3.14 µM). The MIC with E. coli Tol C was < 0.06 µg/mL.
With `Cc1c(N2CCC(C(C)O)C2)c(F)cn2c(=O)n(N)c(=O)c(C3CC3)c12` (stereo not shown) [Compound 4h], the melting point was 172 to 174 °C. At E. coli gyrase, this molecule had an IC50 of 1200 nM. For the same molecule, the MIC with S. pyogenes C203 turned out to be 2 µg/mL (≈ 5.52 µM). Also, in the series on E. coli MC 4100, the MIC was 16 µg/mL (≈ 44.1 µM). For the same molecule, the MIC with E. faecalis RB1 is 2 µg/mL (≈ 5.52 µM). Besides, the MIC with E. coli B90 turned out to be 0.13 µg/mL (≈ 0.359 µM). In addition, the MIC in the series with S. aureus 29213 was determined as 0.5 µg/mL (≈ 1.38 µM). For the same molecule, the MIC with E. coli Tol C was < 0.06 µg/mL. Further, the MIC in the series with S. aureus 2552 (setting [2]) stood at 1 µg/mL (≈ 2.76 µM). Moreover, in the series on S. aureus UC-76 (setting [3]), the MIC was 0.5 µg/mL (≈ 1.38 µM).
The molecule `Cc1c(N2CC[C@@H](C3(N)CC3)C2)c(F)cn2c(=O)n(N)c(=O)c(C3CC3)c12` [Compound 4i, 2-Amino-6-[(R)-3-(1-aminocyclopropyl)pyrrolidin-1-yl]-4-cyclopropyl-7-fluoro-5-methylpyrido[1,2-c]pyrimidine-1,3-dione] registered a concentration for half-maximal inhibition (IC50) against E. coli gyrase of 640 nM. Besides, the “In Vivo Median Protective Dose” value in the series on S. pyogenes came out at 2.1 mg/kg. Moreover, the MIC in the series on N. gonorrhoeae 2709 amounted to 0.13 µg/mL (≈ 0.348 µM); in the series on N. gonorrhoeae 2637 (setting [1]), 0.03 µg/mL (≈ 0.0803 µM); with S. pyogenes C203, 0.015 µg/mL (≈ 0.0402 µM); in the series on E. coli MC 4100, 0.5 µg/mL (≈ 1.34 µM); with E. faecalis RB1, 0.06 µg/mL (≈ 0.161 µM); in the series with E. coli B90 it was 0.03 µg/mL (≈ 0.0803 µM). Also, the MIC is 0.06 µg/mL (≈ 0.161 µM) in the series on S. aureus 29213, 0.015 µg/mL (≈ 0.0402 µM) in the series with E. coli Tol C, 0.06 µg/mL (≈ 0.161 µM) in the series on S. aureus 2552 (setting [2]) and 0.06 µg/mL (≈ 0.161 µM) with S. aureus UC-76 (setting [3]).
In turn, `Cc1c(N2CC[C@@H]([C@H](C)N)C2)c(F)cn2c(=O)n(N)c(=O)c(C3CC3)c12.Cl` [Compound 5b, 2-Amino-6-[(R)-3-((S)-1-aminoethyl)pyrrolidin-1-yl]-4-cyclopropyl-7-fluoro-5-methyl-pyrido[1,2-c]pyrimidine-1,3-dione, hydrochloride] displayed a melting point of 218 to 220 °C. The molecule further registered an IC50 against E. coli gyrase of 500 nM. Also, the MIC in the series on N. gonorrhoeae 2709 was found to be 0.25 µg/mL. The MIC in the series with N. gonorrhoeae 2637 (setting [1]) amounted to 0.13 µg/mL. In the series with S. pyogenes C203, the MIC is 0.008 µg/mL. The MIC in the series on E. coli MC 4100 was 0.5 µg/mL. Further, the MIC in the series on E. faecalis RB1 amounted to 0.13 µg/mL. For the same molecule, the MIC in the series with E. coli B90 turned out to be 0.06 µg/mL. In the series with S. aureus 29213, the MIC was 0.25 µg/mL. The MIC in the series on E. coli Tol C came out at 0.03 µg/mL. Moreover, the MIC in the series with S. aureus 2552 (setting [2]) is 0.25 µg/mL. Moreover, the MIC with S. aureus UC-76 (setting [3]) amounted to 0.06 µg/mL.
For `Cc1c(N2CC(C(C)N)C(C)(C)C2)c(F)cn2c(=O)n(N)c(=O)c(C3CC3)c12` (stereo not shown) [Compound 5c, 2-Amino-6-[4-(1-amino-ethyl)-3,3-dimethylpyrrolidin-1-yl]-4-cyclopropropyl-7-fluoro-5-methyl-pyrido[1,2-c]pyrimidine-1,3-dione, hydrochloride], the IC50 at E. coli gyrase was found to be 700 nM. Also, the MIC with S. pyogenes C203 stood at 0.5 µg/mL; in the series with E. coli MC 4100, 16 µg/mL; with E. faecalis RB1, 2 µg/mL; in the series on E. coli B90, 2 µg/mL; with S. aureus 29213 it was 2 µg/mL; in the series with E. coli Tol C, 0.5 µg/mL.
